Laboratory results from article PMC7376718, “Flavonoids isolated from the South African weed Chromolaena odorata (Asteraceae) have pharmacological activity against uropathogens” (BMC Complementary Medicine and Therapies, 2020).
In brackets after ≈: the same amount, converted by molar mass. Like-named read-outs stand apart in the source and are kept apart here.

What was measured:
[1] = system: C. neoformans and A. fumigatus; test: Mean MIC over the fungal isolates; type: cell-based
Source text: (§1) The cultures used were Escherichia coli (American Type Culture Collection, ATCC 25922) labelled as 1, E. coli isolates (B1989/17 and B1962/17) labelled as 2 and 3 from equine urine, collected from the Department of Veterinary Tropical Diseases, Faculty of Veterinary Science, University of Pretoria, South Africa, Klebsiella pneumoniae isolate from commercial chicken eggs, Enterococcus faecalis (ATCC 29212), Pseudomonas aeruginosa (ATCC 27853), Staphylococcus aureus (ATCC 29213), Candida albicans from a Gouldian finch, Aspergillus fumigatus from a chicken and Cryptococcus neoformans from a cheetah. These microbial strains were maintained on MHA or SDA for bacteria and fungi respectively, while the isolates were maintained on blood agar.
(§2) Ten mg/mL of each fraction and 1 mg/mL of isolated compounds were prepared in 10% DMSO and tested against S. aureus, E. coli, K. pneumoniae, E. faecalis, P. aeruginosa, C. albicans, C. neoformans and A. fumigatus. Cultures were prepared by inoculating each microbial strain from prepared agar plates into sterilized MHB for bacterial and SDB for fungi in sterile McCartney bottles respectively. The inoculums were placed in an orbital shaker incubator. Bacterial strains were incubated at 37 °C for 18 h. Each bacterial culture was diluted in fresh MHB and the absorbance was measured at a wavelength of 560 nm using a microplate reader (Epoch Biotek). The readings were compared to a McFarland standard No. 1 correlating to approximately 3 × 10^8 cfu/mL). For fungi strains, cultures were incubated at 30 °C for 24 h (C. albicans), 72 h (C. neoformans) and 120 h (A. fumigatus) respectively. The resultant cells and spores were washed with sterile normal saline and absorbance was measured at a wavelength of 560 nm and turbidity was adjusted to a McFarland standard 1.This was further diluted in a 1:10 ratio in SDB to a turbidity of 5 × 10^5 cfu/mL. These diluted cultures (bacterial and fungi) were used for the screening following the serial microdilution method of Eloff.

[2] = system: Candida albicans from a Gouldian finch; test: MIC, serial microdilution with INT; type: cell-based; conditions: C. albicans, read-out: Minimum inhibitory concentration
Source text: as §1, §2

[3] = system: Aspergillus fumigatus from a chicken; test: MIC, serial microdilution with INT; type: cell-based; conditions: for MIC: Aspergillus fumigatus, read-out: Minimum inhibitory concentration
Source text: as §1, §2

[4] = system: Cryptococcus neoformans from a cheetah; test: MIC, serial microdilution with INT; type: cell-based; conditions: C. neoformans, read-out: Minimum inhibitory concentration
Source text: as §1, §2

[5] = Cytotoxicity, MTT assay; type: cell-based; conditions: human, C3A cells, read-out: Lethal concentration (LC50)
Method: Different concentrations of the compounds ranging from 0.003 to 0.2 mg/mL were tested for cytotoxicity against three cell lines; Vero monkey kidney, C3A and Caco2. Vero cells were grown and maintained in MEM, supplemented with 0.1% gentamicin and 5% foetal calf serum, while Caco2 and C3A cells were grown and maintained in DMEM supplemented with 10% foetal calf serum, 1% non-essential amino acids and 1% penicillin-streptomycin. All cells were incubated in a 5% CO2 incubator at 37 °C. Doxorubicin chloride was used as positive control while 10% DMSO used in dissolving the test samples was used as the negative control. The 3-(4,5-dimethylthiazol)-2,5-diphenyl tetrazolium bromide (MTT) assay described by Mosmann [50] with modification by McGaw et al. [51] was used to determine the cytotoxicity of the test samples. The lethal concentration (LC50) value was calculated as the concentration of tested sample resulting in a 50% reduction of absorbance compared to untreated cells.

[6] = in vitro
Method: (§3) Different concentrations of the compounds ranging from 0.003 to 0.2 mg/mL were tested for cytotoxicity against three cell lines; Vero monkey kidney, C3A and Caco2. Vero cells were grown and maintained in MEM, supplemented with 0.1% gentamicin and 5% foetal calf serum, while Caco2 and C3A cells were grown and maintained in DMEM supplemented with 10% foetal calf serum, 1% non-essential amino acids and 1% penicillin-streptomycin. All cells were incubated in a 5% CO2 incubator at 37 °C. Doxorubicin chloride was used as positive control while 10% DMSO used in dissolving the test samples was used as the negative control. The 3-(4,5-dimethylthiazol)-2,5-diphenyl tetrazolium bromide (MTT) assay described by Mosmann with modification by McGaw et al. was used to determine the cytotoxicity of the test samples. The lethal concentration (LC50) value was calculated as the concentration of tested sample resulting in a 50% reduction of absorbance compared to untreated cells. Selectivity index (SI) values were calculated against the MIC using the formula: […]

[7] = system: Caco2 cells; test: in vitro; conditions: Caco2
Method: as §3

[8] = system: selected microbial strains; test: MIC summarised over the selected microbial strains; type: cell-based; conditions: summary over bacterial and fungal strains
Source text: as §1, with “These microbial strains were maintained on MHA or SDA for bacteria and fungi respectively, while the isolates were maintained on blood agar.” left out
Ten mg/mL of each fraction and 1 mg/mL of isolated compounds were prepared in 10% DMSO and tested against S. aureus, E. coli, K. pneumoniae, E. faecalis, P. aeruginosa, C. albicans, C. neoformans and A. fumigatus. […] Each bacterial culture was diluted in fresh MHB and the absorbance was measured at a wavelength of 560 nm using a microplate reader (Epoch Biotek). The readings were compared to a McFarland standard No. 1 correlating to approximately 3 × 10^8 cfu/mL). […] The resultant cells and spores were washed with sterile normal saline and absorbance was measured at a wavelength of 560 nm and turbidity was adjusted to a McFarland standard 1.This was further diluted in a 1:10 ratio in SDB to a turbidity of 5 × 10^5 cfu/mL. […]

[9] = in vitro; remark: listed apart in the source
Method: as §3

[10] = system: E. coli; design: method as in earlier work; conditions: ref [70] Teffo et al.; cited from earlier work
[11] = system: Staphylococcus aureus (ATCC 29213); test: MIC, serial microdilution with INT; type: cell-based; conditions: ATCC29213, S. aureus, read-out: Minimum inhibitory concentration
Source text: as §1, §2

[12] = system: E. coli (B1962/17) isolate from equine urine, E. coli (3); test: MIC, serial microdilution with INT; type: cell-based; conditions: Escherichia coli, read-out: Minimum inhibitory concentration
Source text: as §1, §2

[13] = system: Klebsiella pneumoniae isolate from commercial chicken eggs; test: MIC, serial microdilution with INT; type: cell-based; conditions: K. pneumoniae; for MIC: Klebsiella pneumoniae, read-out: Minimum inhibitory concentration
Source text: as §1, §2

[14] = system: E. coli (B1989/17) isolate from equine urine, E. coli (2); test: MIC, serial microdilution with INT; type: cell-based; conditions: Escherichia coli, read-out: Minimum inhibitory concentration
Source text: as §1, §2

[15] = system: Escherichia coli (ATCC 25922), E. coli (1); test: MIC, serial microdilution with INT; type: cell-based; conditions: for MIC: Escherichia coli, ATCC25922, E. coli (1), read-out: Minimum inhibitory concentration
Source text: as §1, §2

[16] = system: S. aureus; design: method as in earlier work; conditions: ref [70] Teffo et al.; cited from earlier work
[17] = system: S. aureus, E. coli (1), E. coli (2), E. coli (3), K. pneumoniae; test: Mean MIC over the bacterial strains; type: cell-based; conditions: mean over the five bacterial strains of Table 3
Source text: as §1, §2

[18] = system: Pseudomonas aeruginosa (ATCC 27853); test: MIC, serial microdilution with INT; type: cell-based; conditions: ATCC27853, P. aeruginosa, read-out: Minimum inhibitory concentration
Source text: as §1, §2

[19] = system: Enterococcus faecalis (ATCC 29212); test: MIC, serial microdilution with INT; type: cell-based; conditions: ATCC29212, E. faecalis, read-out: Minimum inhibitory concentration
Source text: as §1, §2

| Structure (SMILES) | MIC ([3]; 48 h) | MIC ([3]; 72 h) | MIC ([3]; 120 h) | MIC ([4]; 72 h, 72 h) | CC50 [6] | MIC, range or verdict over the strains tested [8] | CC50 [9] | MIC [11] | MIC [12] | MIC [13] | MIC [14] | MIC [15] | MIC ([4]; 48 h, 48 h) | MIC [17] | Minimum inhibitory concentration [13] | also measured |
| --- | --- | --- | --- | --- | --- | --- | --- | --- | --- | --- | --- | --- | --- | --- | --- | --- |
| C[C@@H]1[C@H](O)[C@@H](C)/C=C/C=C/C=C/C=C/C=C/C=C/C=C/[C@H](O[C@@H]2O[C@H](C)[C@@H](O)[C@H](N)[C@@H]2O)C[C@@H]2O[C@](O)(C[C@@H](O)C[C@@H](O)[C@H](O)CC[C@@H](O)C[C@@H](O)CC(=O)O[C@H]1C)C[C@H](O)[C@H]2C(=O)O [Amphotericin B, amphotericin B, reference compound] | 31 µg/mL (≈ 33.5 µM) | 63 µg/mL (≈ 68.2 µM) | 125 µg/mL (≈ 135 µM) | 125 µg/mL (≈ 135 µM) | – | – | – | – | – | – | – | – | – | – | – | MIC ([1]; all time points of Table 3): 70 ± 60 µg/mL (≈ 75.8 µM); Mean MIC ([1]; all time points of Table 3, listed as Amp B): 70 µg/mL; MIC ([2]; 24 h): 31 µg/mL (≈ 33.5 µM); MIC ([2]; 48 h): 63 µg/mL (≈ 68.2 µM); MIC ([4]; 120 h, 120 h): 125 µg/mL (≈ 135 µM) |
| COc1cccc2c1C(=O)c1c(O)c3c(c(O)c1C2=O)C[C@@](O)(C(=O)CO)C[C@@H]3O[C@H]1C[C@H](N)[C@H](O)[C@H](C)O1 [Doxorubicin, Doxorubicin chloride, reference compound] | – | – | – | – | – | – | – | – | – | – | – | – | – | – | – | CC50 [5]: 3.3 µg/mL |
| COc1ccc(-c2oc3cc(O)cc(O)c3c(=O)c2O)cc1 [Compound 4, 3,5,7-trihydroxy-4′-methoxyflavone] | 250 µg/mL (≈ 833 µM) | > 250 µg/mL | > 2500 µg/mL | > 250 µg/mL | 193 µg/mL (≈ 643 µM) | weak antimicrobial activity | > 200 µg/mL | 250 µg/mL (≈ 833 µM) | > 250 µg/mL | > 250 µg/mL | > 250 µg/mL | 125 µg/mL (≈ 416 µM) | > 250 µg/mL | – | – | Selectivity index (LC50/MIC) ([7]; E. coli (1)): 1.544; Selectivity index (LC50/MIC) ([7]; S. aureus): 0.772; MIC / antibacterial activity [10]: 125 µg/mL (≈ 416 µM); MIC / antibacterial activity [16]: 250 µg/mL (≈ 833 µM) |
| CNC(C)C1CCC(N)C(OC2C(N)CC(N)C(OC3OCC(C)(O)C(NC)C3O)C2O)O1 (stereo not shown) [Gentamicin, gentamicin, reference compound] | – | – | > 2500 µg/mL | – | > 200 µg/mL | – | > 200 µg/mL | 8 µg/mL (≈ 16.8 µM) | 8 µg/mL (≈ 16.8 µM) | 500 µg/mL (≈ 1050 µM) | 31 µg/mL (≈ 64.9 µM) | 20 µg/mL (≈ 41.9 µM) | – | 60 ± 110 µg/mL (≈ 126 µM) | 250 µg/mL (≈ 523 µM) | Mean MIC [17]: 60 µg/mL; MIC [18]: 8 µg/mL (≈ 16.8 µM); MIC [19]: 500 µg/mL (≈ 1050 µM); Minimum inhibitory concentration ([15]; E. coli (1)): 16 µg/mL (≈ 33.5 µM) |
| O=C(O)c1cn(C2CC2)c2cc(N3CCNCC3)c(F)cc2c1=O [Ciprofloxacin, ciprofloxacin, reference compound] | – | – | – | – | – | – | – | 63 µg/mL (≈ 190 µM) | 1 µg/mL (≈ 3.02 µM) | 50 µg/mL (≈ 151 µM) | 0.05 µg/mL (≈ 0.151 µM) | 2 µg/mL (≈ 6.04 µM) | – | 20 µg/mL (≈ 60.4 µM) | 50 µg/mL (≈ 151 µM) | – |
| COc1ccc(-c2cc(=O)c3c(O)c(OC)c(O)cc3o2)cc1 [Compound 1, 5,7-dihydroxy-4′,6-dimethoxy-flavone] | 63 µg/mL (≈ 200 µM) | 250 µg/mL (≈ 795 µM) | > 2500 µg/mL | > 250 µg/mL | – | weak antimicrobial activity | – | 250 µg/mL (≈ 795 µM) | > 250 µg/mL | 250 µg/mL (≈ 795 µM) | > 250 µg/mL | 250 µg/mL (≈ 795 µM) | > 250 µg/mL | 250 µg/mL (≈ 795 µM) | – | Minimum inhibitory concentration ([3]; 48 h): good activity |
